The values below come from US11130793B2, “GLP-1/GLP-2 dual agonists” (Zealand Pharma A/S, priority 2016, dated 2021).

In one data set the target is T1, human GLP-2 receptor (Homo sapiens, UniProt O95838).
T1 sequence (O95838 1-553 D470N): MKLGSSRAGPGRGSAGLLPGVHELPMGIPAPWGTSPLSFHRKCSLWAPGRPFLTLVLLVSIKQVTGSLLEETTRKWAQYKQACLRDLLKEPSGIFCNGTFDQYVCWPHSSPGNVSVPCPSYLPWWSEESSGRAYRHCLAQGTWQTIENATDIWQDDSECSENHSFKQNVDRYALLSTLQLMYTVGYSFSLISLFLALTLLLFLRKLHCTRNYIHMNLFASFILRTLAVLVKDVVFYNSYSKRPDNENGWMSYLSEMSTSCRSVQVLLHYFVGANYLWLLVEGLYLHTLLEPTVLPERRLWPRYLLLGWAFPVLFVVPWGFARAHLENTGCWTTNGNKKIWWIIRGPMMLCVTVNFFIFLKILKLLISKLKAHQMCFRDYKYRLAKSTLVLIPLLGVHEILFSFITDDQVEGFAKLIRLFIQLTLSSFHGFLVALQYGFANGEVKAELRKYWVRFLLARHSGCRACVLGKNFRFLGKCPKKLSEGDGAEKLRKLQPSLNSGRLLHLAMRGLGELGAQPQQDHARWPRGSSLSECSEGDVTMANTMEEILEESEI
As to the kind of experiment: GLP-2 receptor potency assay (cAMP AlphaScreen, HEK293 cells stably expressing GLP-2R). It is filed as cell-based. Summed up: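 HEK293 cells stably expressing human GLP-2R (G418-selected clone); intracellular cAMP measured by AlphaScreen. Responses normalized to positive and vehicle controls; EC50 and maximal response from 4-parameter logistic fit.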
A general note: Alpha assays give light when donor and acceptor beads are brought close together.

For the next data set, the target named is T2, human GLP-1 receptor (Homo sapiens, UniProt P43220).
T2 construct: expressed in transfected cells
The data set can be described thus: GLP-1 receptor potency assay (cAMP AlphaScreen, HEK293 cells stably expressing GLP-1R). Format: cell-based. In short, it runs like this:
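A HEK293 clone stably expressing cloned human GLP-1R (G418-selected) was stimulated with compound. Intracellular cAMP was measured by AlphaScreen. Responses were normalized to positive and vehicle controls, and EC50 and maximal response were fitted by 4-parameter logistic regression.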

Data set [1] is described as follows: Chemical stability, RP-HPLC main peak area-% after incubation at 40° C. Format: physicochemical. Particulars: pH 7, 40° C., 14 day incubation, 0.2 mg/ml, normalized purity. How it is done:
Samples of each test peptide were dissolved in MilliQ™ water, and the pH of the solution was adjusted to pH 6, 7, 7.5 or 9 using either HCl or NaOH. The final peptide concentration was 0.2 mg/ml. Samples were placed in glass vials and incubated at 40° C. The samples were analyzed by RP-HPLC on a C18 column with gradient elution using an acetonitrile/TFA/water eluent system. The area-percentage (area-%) of the main peak after incubation time T=t (relative to time T=0) was determined by UV spectroscopy at 220 nm.
The purity was first determined as follows: Purity (area-%)=(area of main peak/total area of all peaks)×100.
The purity was then normalized between time points by setting purity at time 0 (T=0) to 100 for each pH value for a given peptide, as follows: Normalised area-% at time t (T=t)=[area-% (T=t)/area-% (T=0)]×100.
The chemical stability assessment results after 14 day incubation (in the form of normalized purity values) are summarized in Table 4.

T2 sequence (P43220 24-463): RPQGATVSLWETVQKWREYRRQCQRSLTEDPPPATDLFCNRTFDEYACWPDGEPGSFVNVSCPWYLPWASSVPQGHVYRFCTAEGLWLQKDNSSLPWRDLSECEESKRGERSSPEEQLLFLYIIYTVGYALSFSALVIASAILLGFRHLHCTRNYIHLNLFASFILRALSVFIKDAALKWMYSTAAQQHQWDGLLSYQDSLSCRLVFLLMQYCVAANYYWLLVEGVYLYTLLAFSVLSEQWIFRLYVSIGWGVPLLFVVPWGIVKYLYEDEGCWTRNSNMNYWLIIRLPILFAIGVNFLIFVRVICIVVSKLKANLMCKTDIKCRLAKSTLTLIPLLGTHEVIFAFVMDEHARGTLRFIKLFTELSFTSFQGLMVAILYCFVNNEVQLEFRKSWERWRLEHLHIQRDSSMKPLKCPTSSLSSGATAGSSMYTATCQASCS

One may read the EC50 as the concentration giving half of the maximal effect. Lower therefore signals a more potent agent. Take “H-HGEGTFTSELATILDEQAARDFIAWLIAHKITD-OH [Compound 38]”: the results for the EC50 at human GLP-2 receptor and on human GLP-1 receptor were 0.043 nM and 8 pM, respectively. The “pH 7 normalised stability” value in data set [1] is reported as “C (<80% normalized stability)”.
